pEC50: −log10 of the molar value. *1 amine or outer side, *2 acyl side, *3 side chain or, on linkers, in order; H or OH if unused. Where a SMILES comes first, the peptide text is derived from it. Side-chain parts run from the residue outwards. γGlu = O=C(O)[C@H](CCC(=O)[*:2])N[*:1]
These compounds were tested against T1, glucagon receptor (Homo sapiens, UniProt P47871) (assay: Assay (I) Glucagon activity (cAMP biosensor, FLIPR)). Conditions: HEK-293 cells with cloned glucagon receptor and cAMP biosensor; end point after 6 minutes.
T1 construct: expressed in transfected cells
T1 sequence (P47871 26-477): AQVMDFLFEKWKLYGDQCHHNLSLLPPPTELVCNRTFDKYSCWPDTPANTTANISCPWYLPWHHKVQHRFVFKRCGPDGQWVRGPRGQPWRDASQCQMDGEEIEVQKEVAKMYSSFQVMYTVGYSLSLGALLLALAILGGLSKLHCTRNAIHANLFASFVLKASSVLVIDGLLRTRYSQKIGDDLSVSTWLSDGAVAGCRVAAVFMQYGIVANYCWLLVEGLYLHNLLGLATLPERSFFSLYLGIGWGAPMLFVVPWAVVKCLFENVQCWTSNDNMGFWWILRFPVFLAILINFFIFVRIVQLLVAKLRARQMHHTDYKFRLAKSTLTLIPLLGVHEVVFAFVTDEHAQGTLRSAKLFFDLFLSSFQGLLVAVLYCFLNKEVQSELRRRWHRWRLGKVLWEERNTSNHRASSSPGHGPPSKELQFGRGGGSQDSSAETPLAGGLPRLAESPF
Format: cell-based
How it was run: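 HEK-293 cells expressing glucagon receptor with membrane cAMP biosensor (ACTOne), calcium-dye loaded with probenecid and a PDE inhibitor.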
For `CC(=O)N[C@@H](CCC(=O)N[C@@H](CCC(=O)N[C@@H](CCC(=O)N[C@@H](CCC(=O)NCCCC[C@H](NC(=O)[C@@H](NC(=O)[C@H](Cc1ccccc1)NC(=O)[C@H](CC(=O)O)NC(=O)[C@H](CCC(N)=O)NC(=O)[C@H](C)NC(=O)[C@H](CCCNC(=N)N)NC(=O)[C@H](CCCNC(=N)N)NC(=O)[C@@H](NC(=O)[C@H](CC(=O)O)NC(=O)[C@H](CC(C)C)NC(=O)[C@H](Cc1ccc(O)cc1)NC(=O)[C@H](CCCCN)NC(=O)[C@H](CO)NC(=O)[C@H](Cc1ccc(O)cc1)NC(=O)[C@H](CC(=O)O)NC(=O)[C@H](CO)NC(=O)[C@@H](NC(=O)[C@H](Cc1ccccc1)NC(=O)[C@@H](NC(=O)CNC(=O)[C@H](CCC(N)=O)NC(=O)[C@H](CO)NC(=O)[C@@H](N)Cc1c[nH]cn1)[C@@H](C)O)[C@@H](C)O)[C@@H](C)O)C(C)C)C(=O)N[C@@H](Cc1c[nH]c2ccccc12)C(=O)N[C@@H](CC(C)C)C(=O)N[C@@H](CC(C)C)C(=O)N[C@@H](CO)C(=O)N[C@H](C(=O)O)[C@@H](C)O)C(=O)O)C(=O)O)C(=O)O)C(=O)O` [Example 30], the pEC50 was 11.19.
In the case of `CC(=O)N[C@@H](CCC(=O)N[C@@H](CCC(=O)N[C@@H](CCC(=O)N[C@@H](CCC(=O)NCCCC[C@H](NC(=O)[C@@H](NC(=O)[C@H](Cc1ccccc1)NC(=O)[C@H](CC(=O)O)NC(=O)[C@H](C)NC(=O)[C@H](C)NC(=O)[C@H](CCCNC(=N)N)NC(=O)[C@H](CCCNC(=N)N)NC(=O)[C@H](Cc1ccccc1)NC(=O)[C@H](CC(=O)O)NC(=O)[C@H](CC(C)C)NC(=O)[C@H](Cc1ccc(O)cc1)NC(=O)[C@H](CCCCN)NC(=O)[C@H](CO)NC(=O)[C@H](Cc1ccc(O)cc1)NC(=O)[C@H](CC(=O)O)NC(=O)[C@H](CO)NC(=O)[C@@H](NC(=O)[C@H](Cc1ccccc1)NC(=O)[C@@H](NC(=O)CNC(=O)[C@H](Cc1c[nH]cn1)NC(=O)[C@H](CO)NC(=O)[C@@H](N)Cc1c[nH]cn1)[C@@H](C)O)[C@@H](C)O)C(C)C)C(=O)N[C@@H](Cc1c[nH]c2ccccc12)C(=O)N[C@@H](CC(C)C)C(=O)N[C@@H](CC(C)C)C(=O)N[C@@H](CO)C(=O)N[C@H](C(=O)O)[C@@H](C)O)C(=O)O)C(=O)O)C(=O)O)C(=O)O` [Example 12, N^ε24-[(4S)-4-[[(4S)-4-[[(4S)-4-[[(4S)-4-acetamido-4-carboxybutanoyl]amino]-4-carboxybutanoyl]amino]-4-carboxybutanoyl]amino]-4-carboxybutanoyl]-[His3,Phe16,Ala20,Lys24,Leu27,Ser28]-Glucagon] (H-HSHGTFTSDYSKYLDFRRAADFVK([γGlu-γGlu-γGlu-γGlu-Ac])WLLST-OH), the pEC50 was 10.99.
Compound `CC(=O)N[C@@H](CCC(=O)N[C@@H](CCC(=O)N[C@@H](CCC(=O)N[C@@H](CCC(=O)NCCCC[C@H](NC(=O)[C@@H](NC(=O)[C@H](Cc1ccccc1)NC(=O)[C@H](CC(=O)O)NC(=O)[C@H](C)NC(=O)[C@H](C)NC(=O)[C@H](CCCNC(=N)N)NC(=O)[C@H](CCCNC(=N)N)NC(=O)[C@@H](NC(=O)[C@H](CC(=O)O)NC(=O)[C@H](CC(C)C)NC(=O)[C@H](Cc1ccc(O)cc1)NC(=O)[C@H](CCCCN)NC(=O)[C@H](CO)NC(=O)[C@H](Cc1ccc(O)cc1)NC(=O)[C@H](CC(=O)O)NC(=O)[C@H](CO)NC(=O)[C@@H](NC(=O)[C@H](Cc1ccccc1)NC(=O)[C@@H](NC(=O)CNC(=O)[C@H](Cc1c[nH]cn1)NC(=O)[C@H](CO)NC(=O)[C@@H](N)Cc1c[nH]cn1)[C@@H](C)O)[C@@H](C)O)C(C)C)C(C)C)C(=O)N[C@@H](Cc1c[nH]c2ccccc12)C(=O)N[C@@H](CC(C)C)C(=O)N[C@@H](CC(C)C)C(=O)N[C@@H](CO)C(=O)N[C@H](C(=O)O)[C@@H](C)O)C(=O)O)C(=O)O)C(=O)O)C(=O)O` [Example 10, N^ε24-[(4S)-4-[[(4S)-4-[[(4S)-4-[[(4S)-4-acetamido-4-carboxybutanoyl]amino]-4-carboxybutanoyl]amino]-4-carboxybutanoyl]amino]-4-carboxybutanoyl]-[His3,Val16,Ala20,Lys24,Leu27,Ser28]-Glucagon] (H-HSHGTFTSDYSKYLDVRRAADFVK([γGlu-γGlu-γGlu-γGlu-Ac])WLLST-OH) has a pEC50 of 10.78.
With `CC[C@H](C)[C@H](NC(=O)[C@H](CC(=O)O)NC(=O)[C@H](CC(C)C)NC(=O)[C@H](Cc1ccc(O)cc1)NC(=O)[C@H](CCCCN)NC(=O)[C@H](CO)NC(=O)[C@H](Cc1ccc(O)cc1)NC(=O)[C@H](CC(=O)O)NC(=O)[C@H](CO)NC(=O)[C@@H](NC(=O)[C@H](Cc1ccccc1)NC(=O)[C@@H](NC(=O)CNC(=O)[C@H](Cc1c[nH]cn1)NC(=O)[C@H](CO)NC(=O)[C@@H](N)Cc1c[nH]cn1)[C@@H](C)O)[C@@H](C)O)C(=O)N[C@@H](CCCNC(=N)N)C(=O)N[C@@H](CCCNC(=N)N)C(=O)N[C@@H](C)C(=O)N[C@@H](C)C(=O)N[C@@H](CC(=O)O)C(=O)N[C@@H](Cc1ccccc1)C(=O)N[C@H](C(=O)N[C@@H](CCCCNC(=O)CC[C@H](NC(=O)CC[C@H](NC(=O)CC[C@H](NC(=O)CC[C@H](NC(C)=O)C(=O)O)C(=O)O)C(=O)O)C(=O)O)C(=O)N[C@@H](Cc1c[nH]c2ccccc12)C(=O)N[C@@H](CC(C)C)C(=O)N[C@@H](CC(C)C)C(=O)N[C@@H](CO)C(=O)N[C@H](C(=O)O)[C@@H](C)O)C(C)C` [Example 11] (H-HSHGTFTSDYSKYLDIRRAADFVK([γGlu-γGlu-γGlu-γGlu-Ac])WLLST-OH) the pEC50 was 10.91.
`CC(=O)N[C@@H](CCC(=O)N[C@@H](CCC(=O)N[C@@H](CCC(=O)N[C@@H](CCC(=O)NCCCC[C@H](NC(=O)[C@@H](NC(=O)[C@H](Cc1ccccc1)NC(=O)[C@H](CC(=O)O)NC(=O)[C@H](CCC(N)=O)NC(=O)[C@H](C)NC(=O)[C@H](CCCNC(=N)N)NC(=O)[C@H](CCCNC(=N)N)NC(=O)[C@H](Cc1ccc(O)cc1)NC(=O)[C@H](CC(=O)O)NC(=O)[C@H](CC(C)C)NC(=O)[C@H](Cc1ccc(O)cc1)NC(=O)[C@H](CCCCN)NC(=O)[C@H](CO)NC(=O)[C@H](Cc1ccc(O)cc1)NC(=O)[C@H](CC(=O)O)NC(=O)[C@H](CO)NC(=O)[C@@H](NC(=O)[C@H](Cc1ccccc1)NC(=O)[C@@H](NC(=O)CNC(=O)[C@H](CCC(N)=O)NC(=O)[C@H](CO)NC(=O)[C@@H](N)Cc1c[nH]cn1)[C@@H](C)O)[C@@H](C)O)C(C)C)C(=O)N[C@@H](Cc1c[nH]c2ccccc12)C(=O)N[C@@H](CC(C)C)C(=O)N[C@@H](CC(C)C)C(=O)N[C@@H](CO)C(=O)N[C@H](C(=O)O)[C@@H](C)O)C(=O)O)C(=O)O)C(=O)O)C(=O)O` [Example 37, N^ε24-[(4S)-4-[[(4S)-4-[[(4S)-4-[[(4S)-4-acetamido-4-carboxybutanoyl]amino]-4-carboxybutanoyl]amino]-4-carbox[…]ybutanoyl]amino]-4-carboxybutanoyl]-[Tyr16,Lys24,Leu27,Ser28]-Glucagon] was tested, and the pEC50 was 11.52.
